# In ChEMBL document CHEMBL1201862, “PubChem BioAssay data set” (2004):
#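 Compound exposure: 48 hours, 5 concentrations, 96-well plates. Here, GI50 denotes the concentration required for 50% inhibition of growth.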 Active and inactive are the calls of the source. No stated cut-off is given here; in the data, active = GI50 up to about 1.1 µM and inactive = higher.
# Key:
# Assay in all cases: DTP human tumour cell line panel, 48 h
# IGROV-1 = system: IGROV-1
# KM12 = system: KM12
# UO-31 = system: UO-31
# OVCAR-8 = system: OVCAR-8
# HOP-92 = system: HOP-92
# KM-20L2 = system: KM-20L2
# M14 = system: M14
# LXFL 529 = system: LXFL 529
# K562 = system: K562
# UACC-257 = system: UACC-257
# TK-10 = system: TK-10
# SF-268 = system: SF-268
# ACHN = system: ACHN
# RXF 393 = system: RXF 393
# EKVX = system: EKVX
# NCI-H460 = system: NCI-H460
# U-251 = system: U-251
# SK-MEL-2 = system: SK-MEL-2
# CAKI-1 = system: CAKI-1
# SF-539 = system: SF-539
# SK-MEL-5 = system: SK-MEL-5
# SK-OV-3 = system: SK-OV-3
# A549 = system: A549
# LOX IMVI = system: LOX IMVI
# RPMI-8226 = system: RPMI-8226
# HOP-18 = system: HOP-18
# NCI-H226 = system: NCI-H226
# A498 = system: A498
# Malme-3M = system: Malme-3M
# HCC 2998 = system: HCC 2998
# 786-0 = system: 786-0
# SK-MEL-28 = system: SK-MEL-28
# HT-29 = system: HT-29
# SNB-19 = system: SNB-19
# SN12C = system: SN12C
# HOP-62 = system: HOP-62
# SF-295 = system: SF-295
# MOLT-4 = system: MOLT-4
# HL-60 = system: HL-60
# SW-620 = system: SW-620
# DMS-273 = system: DMS-273
# HCT-15 = system: HCT-15
# NCI-H23 = system: NCI-H23
# DLD-1 = system: DLD-1
# SNB-75 = system: SNB-75
# DMS-114 = system: DMS-114
# SNB-78 = system: SNB-78
# SR = system: SR
# CCRF-CEM = system: CCRF-CEM
# UACC-62 = system: UACC-62
# OVCAR-5 = system: OVCAR-5
# HCT-116 = system: HCT-116
# MDA-N = system: MDA-N
# T47D = system: T47D
# NCI-H522 = system: NCI-H522
# MDA-MB-435 = system: MDA-MB-435
# M19-MEL = system: M19-MEL
# OVCAR-3 = system: OVCAR-3
# NCI/ADR-RES = system: NCI/ADR-RES
# MDA-MB-231 = system: MDA-MB-231
# OVCAR-4 = system: OVCAR-4
# MCF7 = system: MCF7
# COLO 205 = system: COLO 205
# BT-549 = system: BT-549
# Hs-578T = system: Hs-578T
# DU-145 = system: DU-145
# PC-3 = system: PC-3
structure (smiles),measurement,setting,value
COc1ccc(NC(=O)/C(=N/O)C(C)=O)cc1,GI50,IGROV-1,> 100 µM (inactive)
same,GI50,KM12,> 100 µM (inactive)
same,GI50,UO-31,> 100 µM (inactive)
same,GI50,OVCAR-8,> 100 µM (inactive)
same,GI50,HOP-92,> 100 µM (inactive)
same,GI50,KM-20L2,87.9 µM (inactive)
same,GI50,M14,> 100 µM (inactive)
same,GI50,LXFL 529,> 100 µM (inactive)
same,GI50,K562,47.5 µM (inactive)
same,GI50,UACC-257,> 100 µM (inactive)
same,GI50,TK-10,> 100 µM (inactive)
same,GI50,SF-268,> 100 µM (inactive)
same,GI50,ACHN,> 100 µM (inactive)
same,GI50,RXF 393,> 100 µM (inactive)
same,GI50,EKVX,> 100 µM (inactive)
same,GI50,NCI-H460,23.5 µM (inactive)
same,GI50,U-251,> 100 µM (inactive)
same,GI50,SK-MEL-2,> 100 µM (inactive)
same,GI50,CAKI-1,> 100 µM (inactive)
same,GI50,SF-539,> 100 µM (inactive)
same,GI50,SK-MEL-5,> 100 µM (inactive)
same,GI50,SK-OV-3,> 100 µM (inactive)
same,GI50,A549,> 100 µM (inactive)
same,GI50,LOX IMVI,30.8 µM (inactive)
same,GI50,RPMI-8226,> 100 µM (inactive)
same,GI50,HOP-18,> 100 µM (inactive)
same,GI50,NCI-H226,> 100 µM (inactive)
same,GI50,A498,> 100 µM (inactive)
same,GI50,Malme-3M,> 100 µM (inactive)
same,GI50,HCC 2998,> 100 µM (inactive)
same,GI50,786-0,45.1 µM (inactive)
same,GI50,SK-MEL-28,> 100 µM (inactive)
same,GI50,HT-29,> 100 µM (inactive)
same,GI50,SNB-19,> 100 µM (inactive)
same,GI50,SN12C,> 100 µM (inactive)
same,GI50,HOP-62,> 100 µM (inactive)
same,GI50,SF-295,> 100 µM (inactive)
same,GI50,MOLT-4,> 100 µM (inactive)
same,GI50,HL-60,> 100 µM (inactive)
same,GI50,SW-620,15.8 µM (inactive)
same,GI50,DMS-273,> 100 µM (inactive)
same,GI50,HCT-15,17.5 µM
same,GI50,NCI-H23,> 100 µM (inactive)
same,GI50,DLD-1,42.5 µM (inactive)
same,GI50,SNB-75,> 100 µM (inactive)
same,GI50,DMS-114,36.7 µM (inactive)
same,GI50,SNB-78,> 100 µM (inactive)
same,GI50,SR,> 100 µM (inactive)
same,GI50,CCRF-CEM,75.3 µM (inactive)
same,GI50,UACC-62,> 100 µM (inactive)
same,GI50,OVCAR-5,> 100 µM (inactive)
same,GI50,HCT-116,96.8 µM (inactive)
CN(C)CCCNc1ccc2nnn3c4ccc(O)cc4c(=O)c1c23,GI50,IGROV-1,1.92 µM (inactive)
same,GI50,MDA-N,6.52 µM (inactive)
same,GI50,KM12,1.68 µM (inactive)
same,GI50,T47D,21 µM (inactive)
same,GI50,UO-31,2.06 µM (inactive)
same,GI50,OVCAR-8,1.5 µM (inactive)
same,GI50,NCI-H522,3.7 µM (inactive)
same,GI50,HOP-92,4.26 µM (inactive)
same,GI50,KM-20L2,3.3 µM (inactive)
same,GI50,M14,7.89 µM (inactive)
same,GI50,LXFL 529,6.61 µM (inactive)
same,GI50,K562,7.26 µM (inactive)
same,GI50,UACC-257,15.8 µM (inactive)
same,GI50,MDA-MB-435,8.22 µM (inactive)
same,GI50,TK-10,4.67 µM (inactive)
same,GI50,SF-268,2.88 µM (inactive)
same,GI50,ACHN,1.26 µM (inactive)
same,GI50,RXF 393,0.149 µM (active)
same,GI50,EKVX,9.98 µM (inactive)
same,GI50,M19-MEL,12.6 µM (inactive)
same,GI50,OVCAR-3,9.02 µM (inactive)
same,GI50,NCI-H460,0.453 µM (active)
same,GI50,U-251,2.73 µM (inactive)
same,GI50,SK-MEL-2,12.7 µM (inactive)
same,GI50,CAKI-1,1.64 µM (inactive)
same,GI50,SF-539,6.44 µM (inactive)
same,GI50,SK-MEL-5,5.73 µM (inactive)
same,GI50,SK-OV-3,5.6 µM (inactive)
same,GI50,A549,0.358 µM (active)
same,GI50,LOX IMVI,1.16 µM (inactive)
same,GI50,RPMI-8226,2.47 µM (inactive)
same,GI50,HOP-18,9.06 µM (inactive)
same,GI50,NCI/ADR-RES,4.56 µM (inactive)
same,GI50,NCI-H226,2.51 µM (inactive)
same,GI50,A498,6.92 µM (inactive)
same,GI50,Malme-3M,10.3 µM (inactive)
same,GI50,HCC 2998,1.89 µM (inactive)
same,GI50,786-0,2.86 µM (inactive)
same,GI50,SK-MEL-28,6.52 µM (inactive)
same,GI50,MDA-MB-231,10.7 µM (inactive)
same,GI50,OVCAR-4,4.54 µM (inactive)
same,GI50,MCF7,5.7 µM (inactive)
same,GI50,COLO 205,2.51 µM (inactive)
same,GI50,HT-29,2.74 µM (inactive)
same,GI50,SNB-19,6.61 µM (inactive)
same,GI50,SN12C,2.95 µM (inactive)
same,GI50,HOP-62,3.27 µM (inactive)
same,GI50,SF-295,4.37 µM (inactive)
same,GI50,MOLT-4,0.2 µM (active)
same,GI50,HL-60,3.72 µM (inactive)
same,GI50,SW-620,1.16 µM (inactive)
same,GI50,BT-549,18.8 µM (inactive)
same,GI50,Hs-578T,1.41 µM (inactive)
same,GI50,HCT-15,2.85 µM
same,GI50,NCI-H23,3.56 µM (inactive)
same,GI50,DLD-1,1.42 µM (inactive)
same,GI50,SNB-75,3.37 µM (inactive)
same,GI50,DMS-114,9.18 µM (inactive)
same,GI50,DU-145,5.01 µM (inactive)
same,GI50,SNB-78,6.08 µM (inactive)
same,GI50,SR,0.193 µM (active)
same,GI50,CCRF-CEM,1.28 µM (inactive)
same,GI50,UACC-62,11 µM (inactive)
same,GI50,PC-3,2.84 µM (inactive)
same,GI50,OVCAR-5,9.98 µM (inactive)
same,GI50,HCT-116,1.34 µM (inactive)
